The source of these data is paper PMC3983056 (PLoS Pathogens, 2014).

Data set [1] relates to HIV expressing a luciferase reporter gene (NL4-3-Luc) in latently infected primary CD4 T cells. Description: microbe, parasite or virus in culture. In kind it is cell-based. The conditions noted are these: Human immunodeficiency virus 1, NL43, CD4+ T, 48 h, continuous 48 hours, cells from three healthy donors, mean ± SD. An excerpt: To assess clinically tested HDACi for their ability to activate HIV from latency, we first employed a previously described in vitro HIV latency model, [30] with several modifications to increase the sensitivity of detection. The assay involves freshly isolated naïve CD4 T cells from healthy donors polarized to a Th0 phenotype, which mimics memory CD4 T cells. These Th0 cells are then infected with HIV expressing a luciferase reporter gene and cultured for an additional 7 to 10 days until a latent infection is established.
Total peripheral blood mononuclear cells (PBMCs) were obtained from healthy HIV-negative donors by leukapheresis (AllCells, Inc, Emeryville, CA). […] Purified naive CD4+ T cells were activated by incubation with anti-CD3/CD28 magnetic Dynabeads (1 bead: 2 cells ratio, Life Technologies), 1 µg/ml anti-IL-4 (R&D Systems, Minneapolis, MN), 2 µg/ml anti-IL-12p70 antibodies (R&D Systems), and 10 ng/ml TGF-β (R&D Systems) for 3 days, [59]. Following the removal of anti-CD3/CD28 beads and antibodies, cells were maintained in 30 U/ml IL-2 (Life Technologies) for 2 days. Cells were then infected with NL4.3-Luc in the presence of 50 µg/ml DEAE for 3 hours. Cells were maintained in the continued presence of 30 U/ml IL-2 throughout the infection and subsequent rest period with culture medium with fresh IL-2 replaced every 2–3 days. Seven days post-infection, 20 µl of latently infected cells were dispensed into 384 well plates using a MicroFlo dispenser (Biotek Insturments, VT) at 10,000 cells/well containing 100 nl of compound solutions delivered by the Echo acoustic-based liquid dispenser (Labcyte, Sunnyvale, CA). After a 48-hour incubation, 16 µl/well BriteGlo (Promega, Madison, WI) was added and luminescence measured using the Envision plate reader (Perkin Elmer, Waltham, MA). Compound-associated cytotoxicity was determined in latently infected cells in parallel with the virus activation assay. Cells were incubated with compounds for 48 hours at 37°C, and cell viability was determined using Cell Titer Glo reagent (Promega).

Data set [2] is described as follows: Compound-associated cytotoxicity in latently infected cells (Cell Titer Glo). In kind it is cell-based, human. The conditions noted are these: human, latently infected (NL4.3-Luc) primary CD4+ T cells, continuous 48 hours, 50% cell viability reduction, three donors, mean ± SD. The protocol:
(§1) Total peripheral blood mononuclear cells (PBMCs) were obtained from healthy HIV-negative donors by leukapheresis (AllCells, Inc, Emeryville, CA). Naive CD4+ T cells were purified by negative selection using EasySep magnetic beads (StemCells, Inc, Vancouver, Canada) and cultured in RPMI with 10% fetal bovine serum (FBS), penicillin/streptomycin, 1% nonessential amino acids (Life Technologies, Carlsbad, CA), 1% sodium pyruvate (Life Technologies) and 495 nM beta-mercaptoethanol (Sigma Aldrich, St. Louis, MO) in a 37°C, 5% CO2 incubator. Purified naive CD4+ T cells were activated by incubation with anti-CD3/CD28 magnetic Dynabeads (1 bead: 2 cells ratio, Life Technologies), 1 µg/ml anti-IL-4 (R&D Systems, Minneapolis, MN), 2 µg/ml anti-IL-12p70 antibodies (R&D Systems), and 10 ng/ml TGF-β (R&D Systems) for 3 days, [59]. Following the removal of anti-CD3/CD28 beads and antibodies, cells were maintained in 30 U/ml IL-2 (Life Technologies) for 2 days. Cells were then infected with NL4.3-Luc in the presence of 50 µg/ml DEAE for 3 hours. Cells were maintained in the continued presence of 30 U/ml IL-2 throughout the infection and subsequent rest period with culture medium with fresh IL-2 replaced every 2–3 days. Seven days post-infection, 20 µl of latently infected cells were dispensed into 384 well plates using a MicroFlo dispenser (Biotek Insturments, VT) at 10,000 cells/well containing 100 nl of compound solutions delivered by the Echo acoustic-based liquid dispenser (Labcyte, Sunnyvale, CA). After a 48-hour incubation, 16 µl/well BriteGlo (Promega, Madison, WI) was added and luminescence measured using the Envision plate reader (Perkin Elmer, Waltham, MA). Compound-associated cytotoxicity was determined in latently infected cells in parallel with the virus activation assay. Cells were incubated with compounds for 48 hours at 37°C, and cell viability was determined using Cell Titer Glo reagent (Promega).
Background: ATP-based viability assays read luminescence as a measure of living cells.

In data set [3] the test system is latently infected primary CD4 T cells. Described as above. The conditions noted are these: continuous 48 hours, 50% cell viability reduction, three donors, mean ± SD. In kind it is cell-based, human. As for the experimental part: as §1
The nature of data set [4]: Cell culture medium protein binding by equilibrium dialysis, HPLC/mass spectrometry. The format is in vitro ADME.
Data set [5] concerns HIV p24 antigen in latently infected CD4 T-cell cultures. Description: Flow cytometry analysis of p24 expression in the in vitro latency model. The conditions noted are these: for cells expressing p24 antigen: 48 hours, live cell gate. The format is cell-based. As for the experimental part:
Seven days post-infection, cells infected with NL4-3-Luc virus were stimulated for 48 hours with test compounds. Cells were stained with fixable viability dye v450 (eBioscience, San Diego, CA) in phosphate buffered saline (PBS) +2% FBS for 30 minutes at 4°C. Cells were fixed with IC Fixation Buffer (eBioscience) for 20 minutes at room temperature in the dark followed by treatment with a permeabilization buffer (eBioscience) for 30 minutes at 4°C. […] The cells were analyzed on a LSR Fortessa (BD Biosciences, San Jose, CA) and collected data were processed using a FlowJo Analysis Software (TreeStar, Ashland, OR).
A general note: In flow cytometry, cells or beads pass a laser one at a time.

Data set [6] deals with CD4+ T cells, CD8+ T cells and CD19+ B cells in PBMCs from HIV-infected subjects. Description: Cell activation analysis by flow cytometry, PBMC cultures. In kind it is cell-based, human. The conditions noted are these: 4-hour pulse of 15 or 40 nM RMD, any cell subset. As for the experimental part: HIV latency reversing agents that would be suitable for the therapeutic use in vivo should not induce non-specific immune activation.
For cell activation analysis, either complete PBMC cultures or resting CD4+ T cells isolated from HIV-infected cART-suppressed patients were incubated with the tested agents under specified conditions and were stained with relevant antibodies. All antibodies were purchased from BD Biosciences and included Alexa Fluor 700-labeled antibody to CD4, APC-H7-labeled antibody to CD8, PE-Cy7 -labeled antibody to CD19, PE-labeled antibody to CD69, APC-labeled antibody to CD25, and V450-labeled antibody to HLA-DR. Live cells were gated by forward and side scatter and exclusion of the dead cells by Live/Dead Fixable Aqua Stain (Invitrogen). Marker staining was assessed by flow cytometry analysis on a LSR Fortessa with data processing using FlowJo software.

For data set [7], the target named is T1, human HDAC-9 (Homo sapiens, UniProt Q9UKV0).
T1 construct: purchased Reaction Biology Corporation (Malvern, PA)
T1 sequence (Q9UKV0 whole entry): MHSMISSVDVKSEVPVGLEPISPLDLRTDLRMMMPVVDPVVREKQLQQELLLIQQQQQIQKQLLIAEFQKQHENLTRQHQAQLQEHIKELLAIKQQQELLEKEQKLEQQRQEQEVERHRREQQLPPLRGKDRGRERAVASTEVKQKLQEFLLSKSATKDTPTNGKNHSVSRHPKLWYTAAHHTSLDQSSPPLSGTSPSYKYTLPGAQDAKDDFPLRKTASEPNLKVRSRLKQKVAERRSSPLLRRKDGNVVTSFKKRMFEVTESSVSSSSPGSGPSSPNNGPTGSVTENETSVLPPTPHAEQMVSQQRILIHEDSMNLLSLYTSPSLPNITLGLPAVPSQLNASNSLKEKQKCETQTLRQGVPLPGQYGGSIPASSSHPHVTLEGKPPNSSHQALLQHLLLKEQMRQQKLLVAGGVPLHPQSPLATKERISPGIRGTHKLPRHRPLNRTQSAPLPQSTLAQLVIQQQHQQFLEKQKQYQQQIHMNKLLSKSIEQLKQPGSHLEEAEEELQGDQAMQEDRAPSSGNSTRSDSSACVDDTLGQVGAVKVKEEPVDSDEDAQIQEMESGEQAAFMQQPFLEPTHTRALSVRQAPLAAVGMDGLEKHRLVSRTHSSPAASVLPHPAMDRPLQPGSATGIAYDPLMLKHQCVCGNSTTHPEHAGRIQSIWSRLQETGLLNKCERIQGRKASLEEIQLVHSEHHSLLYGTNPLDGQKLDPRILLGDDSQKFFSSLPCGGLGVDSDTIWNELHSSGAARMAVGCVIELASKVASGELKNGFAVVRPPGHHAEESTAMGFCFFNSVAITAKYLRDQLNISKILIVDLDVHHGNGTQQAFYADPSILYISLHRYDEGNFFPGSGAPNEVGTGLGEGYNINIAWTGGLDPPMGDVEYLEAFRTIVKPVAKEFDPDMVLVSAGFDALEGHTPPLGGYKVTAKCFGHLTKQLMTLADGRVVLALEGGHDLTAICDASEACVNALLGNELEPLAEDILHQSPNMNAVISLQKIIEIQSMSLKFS
Description: HDAC inhibition assay. In kind it is biochemical.
Description: Determination of HDACi potency against individual HDAC enzymes was performed at Reaction Biology Corporation (Malvern, PA). In brief, human HDAC-1 to -11 enzymes were incubated with serial dilutions of HDACi and fluorogenic peptide substrates (50 µM) in a 96-well format assay. […] Fluorogenic peptide Boc-Lys(trifluoroacetyl)-AMC was used as a substrate for HDAC enzymes 4, 5, 7, and 9.

As a reminder, the EC50 is the concentration needed to bring the measured effect to its halfway point. Lower therefore signals greater potency. As usually defined, the CC50 is the concentration at which the toxic effect on the cells reaches its halfway point. As a reminder, the IC50 is the concentration that gives 50% inhibition. Compound `C/C=C1\NC(=O)[C@H]2CSSCC/C=C/[C@H](CC(=O)N[C@H](C(C)C)C(=O)N2)OC(=O)[C@H](C(C)C)NC1=O` [RMD, romidepsin] gave an EC50 in data set [1] of 4.5 ± 1 nM. In data set [2], this compound displayed a CC50 at 48 h of 100 nM. In addition, in data set [3], the CC50 worked out at 107 ± 126 nM. Further, the “Free drug concentration, ex vivo cell culture exposure” value in data set [4] (RMD 40 nM, VOR 1,000 nM in culture) turned out to be 22 nM. Further, the fraction unbound in data set [4] (cell culture medium, equilibrium dialysis, read-out: Cell culture medium protein binding (free fraction)) turned out to be 0.55. Further, the entries for the “cells expressing p24 antigen” value in data set [5] (5 nM RMD) and in data set [5] (80 nM RMD) were 3.3% and 5.5%, respectively. The “time course of p24 expression” value in data set [5] (24 to 72 hours, 40 nM RMD or anti-CD3/CD28 antibodies, in presence of antiretrovirals) is “continued to increase for 72 hours”. Further, the “expression of CD25 or HLA-DR” value in data set [6] is given as “did not lead to any changes”. In data set [7], this compound yielded an IC50 of 8910 nM.
